Laboratory results as given in US20250041277A1, “METHODS AND DOSING REGIMENS COMPRISING A CDK2 INHIBITOR AND A CDK4 INHIBITOR FOR TREATING CANCER” (PFIZER INC., priority 2021, published 2025).
Values joined by “and” are separate entries in the source; they are usually repeats but may differ in a detail not shown here. Equal entries are not always repeated.

How the values were obtained:
[1] = test system: CAL12T; experiment: Combinatorial activity in LUAD cell line CAL12T; assay type: cell-based; settings: Homo sapiens, CAL-12T, WT, single agent, read-out: (nM) s.a.
Experimental: (§1) Combinatorial activity of PF-07104091 and PF-07220060 was assessed in LUADs as single agents (s.a.) or in combination.

[2] = test system: A427; experiment: Combinatorial activity in LUAD cell line A427; assay type: cell-based; settings: Homo sapiens, A-427; A427, KRAS G12D; single agent; read-out: (nM) s.a.
Experimental: as §1

[3] = test system: H358; experiment: Combinatorial activity in LUAD cell line H358; assay type: cell-based; settings: Homo sapiens, NCI-H358; H358, KRAS G12C; single agent; read-out: (nM) s.a.
Experimental: as §1

[4] = test system: H1373; experiment: Combinatorial activity in LUAD cell line H1373; assay type: cell-based; settings: Homo sapiens, NCI-H1373; H1373, KRAS G12C; single agent; read-out: (nM) s.a.
Experimental: as §1

[5] = test system: H23; experiment: Combinatorial activity in LUAD cell line H23; assay type: cell-based; settings: Homo sapiens, NCI-H23; H23, KRAS G12C; single agent; read-out: (nM) s.a.
Experimental: as §1

[6] = test system: ST941 PBR PDX model; experiment: In vivo efficacy, palbociclib-resistant ST941 PBR PDX model (Example 3); set-up: species or system NSG mice; settings: ST941PBR, Day 28; PO BID: PF-07104091 150 mpk, PF-07220060 60 mpk, palbociclib 10 mpk; fulvestrant 10 mpk SC 2x week 1 then weekly
Experimental: (§2) Female NSG mice (Jackson Lab) were subcutaneously implanted with fragment (27 mm^3 to 64 mm^3 size) into the dorsal region. All mice for T47D, HCC1428 and ST941 PBR studies were supplemented with 8.5 μg/mL estradiol water (β-Estradiol Sigma-Aldrich, cat #E2758-5G) and gave ad libitum till end of study. For the in vivo efficacy studies, tumor volume and body weights were measured twice a week. Tumor volume was calculated using the [(Length×Width×Width)/2)] formula. TGI was calculated as 100*(1−ΔT/ΔC). The ΔC (ΔT) was obtained by subtracting the mean tumor burden in the vehicle (treated) group on the first day of treatment (Day 0) from the mean tumor burden in vehicle (treated) group on the assessment day. Statistical analysis was performed using ANCOVA when the mean tumor volume in vehicle treated mice reached tumor cutoff size.
We established model in house by continuous treatment of the ST941 PBR tumor bearing mice with PD-0332991 at 50 mg/kg, PO QD plus fulvestrant at 10 mg/kg, SC twice in the first week, then weekly thereafter. To propagate donors for the TGI study, tumors were transplanted to recipient mice. One week after the re-implantation, the recipient mice received continuous treatment with palbociclib plus fulvestrant (dosing schedule described above). After 1 to 2 serial in vivo propagation with the same treatment regimen, the resistant tumors in the range of 700 to 800 mm^3 were re-implanted for a study expansion. The remaining tumor fragments were viably frozen for future use.
The live donor mice were established by implanting ST941 PBR (p11) tumor fragments. Once reaching a range of 700 to 800 mm^3, the donor tumors were subsequently transplanted into secondary recipient mice for a study expansion. To maintain the resistant clones, the ST941 PBR tumor bearing mice were treated with PD-0332991 at 50 mg/kg, PO. QD plus fulvestrant at 10 mg/kg, SC twice in the first week, then weekly afterwards for 10 weeks. The treatment was initiated one week after the implant until day of randomization for study enrollment. […] TGI was assessed on Day 28 post first dose.

[7] = test system: H1792; experiment: Combinatorial activity in LUAD cell line H1792; assay type: cell-based; settings: Homo sapiens, NCI-H1792; H1792, KRAS G12C; single agent; read-out: (nM) s.a.
Experimental: as §1

[8] = test system: SW1573; experiment: Combinatorial activity in LUAD cell line SW1573; assay type: cell-based; settings: Homo sapiens; SW1573, KRAS G12C; single agent; read-out: (nM) s.a.
Experimental: as §1

[9] = test system: H2030; experiment: Combinatorial activity in LUAD cell line H2030; assay type: cell-based; settings: Homo sapiens, NCI-H2030; H2030, KRAS G12C; single agent; read-out: (nM) s.a.
Experimental: as §1

[10] = test system: HCC44 (RB-); experiment: Combinatorial activity in LUAD cell line HCC44; assay type: cell-based; settings: Homo sapiens, KRAS G12C, single agent, read-out: (nM) s.a.
Experimental: as §1

[11] = test system: HCC2935; experiment: Combinatorial activity in LUAD cell line HCC2935; assay type: cell-based; settings: Homo sapiens; HCC2935, WT; single agent; read-out: (nM) s.a.
Experimental: as §1

[12] = test system: MCF7 breast cancer model; experiment: In vivo efficacy, HR+/HER2− MCF7 breast cancer model (Example 4); set-up: species or system NSG mice; settings: MCF7, Day 29; PO BID: PF-07104091 120 mpk, PF-07220060 60 mpk, PF-06873600 30 mpk, palbociclib 10 mpk; fulvestrant 10 mpk SC
Experimental: as §2, with “HCC1428, MCF7” for “T47D, HCC1428”
The MCF7 model was established by implanting donor tumor fragments into recipient mice. To establish the MCF7 donor mice, tumor cells (5×10^6 cell/mouse with 50% Cultrex® Basement Membrane Matrix) were subcutaneously implanted in female NSG mice. Once reaching a range of 700 to 800 mm^3, donor tumors were subsequently transplanted into secondary recipient mice for a study expansion. […] PF-07104091 (lot 022), PF-07220060 (lot CPo126812-01-SY-5700-01), PF-06873600 (lot 022) and PD-0332991 (lot GR08498) were administered (PO) BID (7 hr apart) while fulvestrant (lot 20160224-2) at 10 mg/kg, SC twice in the first week, then weekly afterwards. All mice received treatment continuously until Day 29. TGI was assessed on Day 29 post first dose

Row | Structure (SMILES) | IC50 [1] [nM] | IC50 [2] [nM] | IC50 [3] [nM] | IC50 [4] [nM] | IC50 [5] [nM] | TGI % [6] | IC50 [7] [nM] | IC50 [8] [nM] | IC50 [9] [nM] | IC50 [10] [nM] | IC50 [11] [nM] | TGI % [12] [%]
1 | CC(C)n1c(C(C)(C)O)nc2c(F)cc(-c3nc(N[C@@H]4CCOC[C@H]4O)ncc3Cl)cc21 [PF-07220060, 1,5-anhydro-3-({5-chloro-4-[4-fluoro-2-(2-hydroxypropan-2-yl)-1-(propan-2-yl)-1H-benzimidazol-6-yl]pyrimidin-2-yl}amino)-2,3-dideoxy-D-threo-pentitol] | 210 | 124 | 120 | 470 | 285 | 28% | 210 | > 1000 | 950 | > 1000 | 141 | 79
2 | COCc1cc(C(=O)Nc2cc([C@H]3CC[C@@H](OC(=O)NC(C)C)C3)[nH]n2)n(C)n1 [PF-07104091, (1R,3S)-3-[3-({[3-(methoxymethyl)-1-methyl-1H-pyrazol-5-yl]carbonyl}amino)-1H-pyrazol-5-yl]cyclopentyl propan-2-ylcarbamate] | 220 | 276 |  |  |  | 34% and 24^* % |  |  |  |  | 280 | 60
